Results reported in ChEMBL document CHEMBL1154363, “Heterocyclic 1,7-disubstituted indole sulfonamides are potent and selective human EP3 receptor antagonists” (Bioorg Med Chem Lett, 2009).

Columns and labels:
[1] = target: T1, Prostaglandin E2 receptor EP3 subtype (Homo sapiens, UniProt P43115); experiment: Displacement of [3H]PGE2 from human EP3 receptor
T1 sequence (P43115 whole entry): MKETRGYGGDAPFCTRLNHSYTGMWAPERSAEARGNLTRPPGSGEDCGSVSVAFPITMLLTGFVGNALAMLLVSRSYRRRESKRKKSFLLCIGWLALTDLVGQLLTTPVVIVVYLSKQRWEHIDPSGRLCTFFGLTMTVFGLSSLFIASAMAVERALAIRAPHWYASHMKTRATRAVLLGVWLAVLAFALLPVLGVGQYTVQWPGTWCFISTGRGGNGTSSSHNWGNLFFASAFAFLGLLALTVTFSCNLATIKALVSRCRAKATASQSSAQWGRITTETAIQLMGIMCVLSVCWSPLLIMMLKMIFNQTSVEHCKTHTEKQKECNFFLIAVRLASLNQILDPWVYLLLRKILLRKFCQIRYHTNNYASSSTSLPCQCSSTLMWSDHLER

[2] = target: T2, Prostaglandin E2 receptor EP3 subtype (Homo sapiens) (UniProt P43115); experiment: Displacement of [3H]PGE2 from human EP3 receptor in presence of 10% human serum
T2 sequence (whole entry): T1 sequence (P43115 whole entry)

[3] = Metabolic stability in rat liver microsomes assessed as compound remaining after 30 mins; type: ADME, Microsome; conditions: read-out: Stability
[4] = target: T3, Prostaglandin E2 receptor EP1 subtype (Homo sapiens) (UniProt P34995); experiment: Activity at EP1 receptor at 10 uM by FLIPR assay
T3 sequence (whole entry): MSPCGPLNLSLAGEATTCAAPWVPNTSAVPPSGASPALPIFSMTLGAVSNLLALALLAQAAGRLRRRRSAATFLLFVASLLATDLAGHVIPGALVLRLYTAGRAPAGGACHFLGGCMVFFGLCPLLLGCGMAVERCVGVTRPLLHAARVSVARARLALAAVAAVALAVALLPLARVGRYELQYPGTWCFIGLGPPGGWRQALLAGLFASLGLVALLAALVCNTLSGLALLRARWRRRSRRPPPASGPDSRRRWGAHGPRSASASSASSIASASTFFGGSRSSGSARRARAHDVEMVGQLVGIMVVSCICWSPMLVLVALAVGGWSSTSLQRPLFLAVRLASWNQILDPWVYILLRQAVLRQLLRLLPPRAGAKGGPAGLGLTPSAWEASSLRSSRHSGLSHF

[5] = target: T3, Prostaglandin E2 receptor EP1 subtype (Homo sapiens); experiment: Activity at EP1 receptor at 1 uM by FLIPR assay
[6] = target: T3, Prostaglandin E2 receptor EP1 subtype (Homo sapiens); experiment: Activity at EP1 receptor at 0.1 uM by FLIPR assay
[7] = target: T4, Prostaglandin E2 receptor EP4 subtype (Homo sapiens, UniProt P35408); experiment: Activity at EP4 receptor at 10 uM by FLIPR assay
T4 sequence (P35408 whole entry): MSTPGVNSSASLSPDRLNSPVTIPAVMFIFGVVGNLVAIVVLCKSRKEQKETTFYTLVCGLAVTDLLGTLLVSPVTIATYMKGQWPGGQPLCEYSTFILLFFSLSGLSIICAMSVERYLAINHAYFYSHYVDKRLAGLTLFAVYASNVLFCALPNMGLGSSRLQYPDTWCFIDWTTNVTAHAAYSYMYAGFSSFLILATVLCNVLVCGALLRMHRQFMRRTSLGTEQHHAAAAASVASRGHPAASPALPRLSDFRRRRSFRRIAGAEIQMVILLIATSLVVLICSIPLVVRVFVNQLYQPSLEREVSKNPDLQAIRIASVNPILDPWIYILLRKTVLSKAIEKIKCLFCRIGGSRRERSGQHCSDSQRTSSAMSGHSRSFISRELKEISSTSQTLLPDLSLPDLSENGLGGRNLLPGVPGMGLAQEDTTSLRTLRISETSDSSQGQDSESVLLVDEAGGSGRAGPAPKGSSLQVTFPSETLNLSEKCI

[8] = target: T4, Prostaglandin E2 receptor EP4 subtype; experiment: Activity at EP4 receptor at 1 uM by FLIPR assay
[9] = target: T4, Prostaglandin E2 receptor EP4 subtype; experiment: Activity at EP4 receptor at 0.1 uM by FLIPR assay
[10] = target: T5, Prostaglandin F2-alpha receptor (Homo sapiens, UniProt P43088); experiment: Activity at FP receptor at 10 uM by FLIPR assay
T5 sequence (P43088 whole entry): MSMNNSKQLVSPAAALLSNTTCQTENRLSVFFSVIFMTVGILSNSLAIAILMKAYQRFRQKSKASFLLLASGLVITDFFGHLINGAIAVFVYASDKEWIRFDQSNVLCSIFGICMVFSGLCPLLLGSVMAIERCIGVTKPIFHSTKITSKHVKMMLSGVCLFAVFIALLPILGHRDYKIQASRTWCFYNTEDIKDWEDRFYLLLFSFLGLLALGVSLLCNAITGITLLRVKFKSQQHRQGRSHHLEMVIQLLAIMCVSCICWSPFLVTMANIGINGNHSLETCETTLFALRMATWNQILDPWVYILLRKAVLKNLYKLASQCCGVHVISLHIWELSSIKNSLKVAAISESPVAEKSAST

[11] = target: T5, Prostaglandin F2-alpha receptor; experiment: Activity at FP receptor at 1 uM by FLIPR assay
[12] = target: T5, Prostaglandin F2-alpha receptor; experiment: Activity at FP receptor at 0.1 uM by FLIPR assay
[13] = target: T6, Thromboxane A2 receptor (Homo sapiens) (UniProt P21731); experiment: Activity at TP receptor at 10 uM by FLIPR assay
T6 sequence (whole entry): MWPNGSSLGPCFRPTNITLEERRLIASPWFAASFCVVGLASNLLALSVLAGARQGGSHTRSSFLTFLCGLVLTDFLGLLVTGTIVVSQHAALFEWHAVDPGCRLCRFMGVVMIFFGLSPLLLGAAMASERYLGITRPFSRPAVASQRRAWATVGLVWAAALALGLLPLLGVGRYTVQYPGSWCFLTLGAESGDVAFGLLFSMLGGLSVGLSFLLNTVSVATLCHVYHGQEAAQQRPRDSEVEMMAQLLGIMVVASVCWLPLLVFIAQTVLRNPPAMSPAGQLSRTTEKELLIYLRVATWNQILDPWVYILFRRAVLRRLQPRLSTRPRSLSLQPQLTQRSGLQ

[14] = target: T6, Thromboxane A2 receptor (Homo sapiens); experiment: Activity at TP receptor at 1 uM by FLIPR assay
[15] = target: T6, Thromboxane A2 receptor (Homo sapiens); experiment: Activity at TP receptor at 0.1 uM by FLIPR assay
[16] = Protein binding in plasma by HSA-HPLC method; type: ADME, cell-free; conditions: human, read-out: PB (converted)
[17] = Metabolic stability in human liver microsomes assessed as compound remaining after 30 mins; type: ADME, Microsome; conditions: read-out: Stability
Platelet = experiment: Inhibition of PGE2/collagen-induced platelet aggregation rat platelets rich plasma; type: functional

SMILES	IC50 [1]	fold change (FC) [2]	remaining at 0.5 h [3]	Activity [4]	Activity [5]	Activity [6]	Activity [7]	Activity [8]	Activity [9]	Activity [10]	Activity [11]	Activity [12]	Activity [13]	Activity [14]	Activity [15]	fraction unbound [16]	remaining at 0.5 h [17]	IC50 (Platelet)
Cc1cn(Cc2ccc(Cl)cc2Cl)c2c(-c3nnc(NC(=O)c4ccc5c(c4)OC(F)(F)O5)o3)cc(F)cc12	244 nM	21.4	–	–	–	–	–	–	–	–	–	–	–	–	–	–	–	–
Cc1cn(Cc2ccc(F)cc2F)c2c(-c3cc(NS(C)(=O)=O)on3)cc(F)cc12	17900 nM	–	–	–	–	–	–	–	–	–	–	–	–	–	–	–	–	–
Cc1cn(Cc2ccc(Cl)cc2Cl)c2c(-c3ccc(NS(=O)(=O)c4cc(Cl)c(Cl)s4)nc3)cc(F)cc12	2 nM	217	–	–	–	–	–	–	–	–	–	–	–	–	–	–	–	–
Cc1cn(Cc2ccc(F)c(F)c2)c2c(-c3cc(NS(=O)(=O)c4cc(Cl)c(Cl)s4)nn3C)cc(F)cc12	1980 nM	1	–	–	–	–	–	–	–	–	–	–	–	–	–	–	–	–
Cc1cn(Cc2ccc3ccccc3c2)c2c(-c3cc(NS(=O)(=O)c4ccc(F)c(F)c4)no3)cc(F)cc12	1 nM	14.6	9.9%	62%	9%	-3%	-4%	-17%	-25%	6%	0%	-9%	12%	-2%	3%	–	–	–
Cc1cn(Cc2ccc(F)c(F)c2)c2c(-c3cc(NS(=O)(=O)c4ccc(F)c(F)c4)no3)cc(F)cc12	44 nM	178	–	99%	11%	-9%	18%	17%	18%	21%	16%	15%	17%	0%	3%	–	–	–
Cc1cn(Cc2ccc3ccccc3c2)c2c(-c3cc(NS(=O)(=O)c4ccc(Cl)c(Cl)c4)no3)cc(F)cc12	11 nM	4.9	–	16%	-7%	2%	3%	-15%	-29%	-6%	-8%	-3%	-13%	-8%	9%	–	–	–
Cc1cn(Cc2ccc(Cl)cc2Cl)c2c(-c3cc(NS(=O)(=O)c4cc(F)c(F)cc4F)no3)cc(F)cc12	3 nM	3.3	–	–	–	–	–	–	–	–	–	–	–	–	–	–	–	–
Cc1cn(Cc2ccc(Cl)cc2Cl)c2c(-c3nnc(NC(=O)c4ccc(F)cc4F)o3)cc(F)cc12	1020 nM	–	–	–	–	–	–	–	–	–	–	–	–	–	–	–	–	–
Cc1cn(Cc2ccc(Cl)cc2Cl)c2c(-c3nnc(NS(=O)(=O)c4cc(Cl)c(Cl)s4)o3)cc(F)cc12	10 nM	27	46.4%	–	–	–	–	–	–	–	–	–	–	–	–	0.002	62.7%	–
Cc1cn(Cc2ccc3ccccc3c2)c2c(-c3cc(NS(=O)(=O)c4cc(F)c(F)cc4F)no3)cc(F)cc12	8 nM	2.3	–	100%	29%	-2%	9%	-17%	-17%	19%	3%	-3%	19%	-5%	-9%	–	–	–
Cc1cn(Cc2ccc3ccccc3c2)c2c(-c3cc(NS(=O)(=O)c4cc(Cl)c(Cl)s4)no3)cc(F)cc12	1 nM	3.6	–	80%	0%	-10%	10%	-9%	-9%	7%	-4%	-7%	7%	-7%	-12%	–	–	3240 nM
Cc1cn(Cc2ccc(Cl)cc2Cl)c2c(-c3nnc(NC(=O)c4ccc(F)c(F)c4)o3)cc(F)cc12	664 nM	19.6	–	96%	10%	-7%	62%	14%	9%	66%	15%	3%	64%	-1%	11%	–	–	–
Cc1cn(Cc2ccc(Cl)cc2Cl)c2c(-c3nnc(NS(=O)(=O)c4ccc(F)c(F)c4)o3)cc(F)cc12	20 nM	2.4	42.5%	100%	30%	-11%	32%	26%	13%	41%	26%	22%	89%	9%	-5%	–	–	2710 nM
Cc1cn(Cc2ccc(Cl)cc2Cl)c2c(-c3nc(NS(=O)(=O)c4cc(Cl)c(Cl)s4)no3)cc(F)cc12	24 nM	20.9	–	100%	74%	5%	25%	-21%	-21%	30%	-2%	-4%	98%	5%	2%	–	–	–
Cc1cn(Cc2ccc(Cl)cc2Cl)c2c(-c3cc(NS(=O)(=O)c4cc(Cl)c(Cl)s4)no3)cc(F)cc12	5 nM	67	57.8%	–	–	–	–	–	–	–	–	–	–	–	–	–	46.8%	1040 nM
Cc1cn(Cc2ccc(Cl)cc2Cl)c2c(-c3cc(NS(=O)(=O)c4ccc(Cl)c(Cl)c4)no3)cc(F)cc12	1 nM	18	–	–	–	–	–	–	–	–	–	–	–	–	–	–	–	–
Cc1cn(Cc2ccc(Cl)cc2Cl)c2c(-c3nnc(NS(=O)(=O)c4cc(F)c(F)cc4F)o3)cc(F)cc12	2 nM	22	–	99%	94%	25%	84%	15%	9%	64%	21%	5%	99%	11%	3%	0.006	–	–
Cc1cn(Cc2ccc(Cl)cc2Cl)c2c(-c3nnc(NS(C)(=O)=O)o3)cc(F)cc12	2570 nM	199	–	–	–	–	–	–	–	–	–	–	–	–	–	–	–	–
Cc1cn(Cc2ccc(F)c(F)c2)c2c(-c3cc(NS(=O)(=O)c4cc(Cl)c(Cl)s4)no3)cc(F)cc12	59 nM	24.2	–	52%	-5%	-8%	18%	11%	9%	31%	18%	8%	11%	-3%	3%	–	–	–
Cc1cn(Cc2ccc(F)c(F)c2)c2c(-c3cc(NS(=O)(=O)c4ccc(F)c(F)c4F)no3)cc(F)cc12	12 nM	103	–	99%	77%	5%	38%	-3%	-8%	99%	-11%	3%	70%	3%	5%	–	–	–
Cc1cn(Cc2ccc(Cl)cc2Cl)c2c(-c3nnc(NC(=O)c4ccco4)o3)cc(F)cc12	363 nM	–	–	–	–	–	–	–	–	–	–	–	–	–	–	–	–	–
